# Patent publication US20200222347A1, “ANTIMICROBIALS AND METHODS OF USE THEREOF” (priority 2013, published 2020)
# “Also recorded” adds a separate entry of the source.
# Columns and labels:
# C difficile = test: Kirby-Bauer disc diffusion antimicrobial susceptibility; assay type: cell-based; details: 100 mM, carrier water; 48 hours for anaerobes
# S. aureus 6538 = test: as above; assay type: cell-based; details: 100 mM, carrier water; 18-24 hours for aerobes
# P. aeruginosa = test: as above; assay type: cell-based, Pseudomonas aeruginosa; details: 100 mM, carrier water; 18-24 hours for aerobes
# P. acnes 6919 = test: as above; assay type: cell-based; details: 100 mM, carrier water
# [1] = test system: Propionibacterium acnes (1100; ATCC 6919); test: BALB/c mice intradermal infection, topical treatment, Example 9; assay type: in vivo; details: for effect on P. acnes CFU burden in mouse skin: 96 hours
# Description: BALB/c mice were infected with Propionibacterium acnes via intradermal injection and treated topically with varying concentrations of a novel test compound, PCA, at 2, 24, 48 and 72 hours following challenge. Efficacy was evaluated by CFU analysis from skin samples harvested at 96 hours post challenge.
# Female BALB/c mice, ordered from Harlan and weighing 17-19 g, were acclimated to housing conditions and handled in accordance with AUP number TP-18-13. The animals were acclimated for 4 days prior to bacterial challenge. Only animals deemed healthy and fully immunocompetent were included in this study. Cages were prepared with 2 mice per cage.
# On Day −1, each mouse was anesthetized in an Isoflurane induction chamber and the lesion site was cleared of hair. An area of approximately 2.0 cm×2.0 cm of skin on the dorsal area of each mouse was cleared through use of the depilatory agent Nair®.
# Cultures were grown for 96 hrs at 37° C. in an anaerobic atmosphere on TS agar plates supplemented with 5% sheep blood cells. The culture was aseptically swabbed and transferred to tubes of TS broth and allowed to grow for 72 hours. The cultures were diluted to provide challenge inoculum of approximately 6.0-7.0 log 10 CFU per 50 μL in PBS. On Day 0 each mouse was anesthetized using Isoflurane. Each animal on the study was administered 50 μL of the bacterial suspension via intradermal injection in the dorsal area that was previously denuded of hair. The final CFU count from the challenge suspension determined that 6.0 log 10 CFU per mouse were delivered.
# The test treatment, PCA, was provided by the study Sponsor and formulated using sterile water. Treatments were administered topically in a dose volume of 0.1 mL. Treatments were given at 2, 24, 48 and 72 hours post challenge at 60 mg/kg (78 mM; Group 3), 30 mg/kg (39 mM; Group 4) or 15 mg/kg (19.5 mM; Group 5).
# At 96 hours following challenge, mice were humanely euthanized and skin was aseptically removed from the infection site. Skin samples were placed in homogenation vials with 2.0 mL PBS, weighed and homogenized using a mini-bead beater. Homogenate was serially diluted and plated anaerobically on TSA agar plates for enumeration of colony forming units per gram of skin tissue.
# [2] = test system: Pseudomonas Aeruginosa ATCC 700888 biofilm; test: Drip flow biofilm reactor, PCA coated cloth and sintered mesh, Example 7; assay type: cell-based
# Description: The cloth was dried when tested.
smiles,measurement,setting,value
"O=C(O)c1ccc(O)c(O)c1 [PCA, Protocatechuic acid]",effectiveness against C. difficile (growth inhibition),C difficile,effective
same,effectiveness against S. aureus 6538,S. aureus 6538,effective
same,effectiveness against P. aeruginosa,P. aeruginosa,effective; also recorded: some effectiveness
same,effectiveness against P. acnes (growth inhibition),P. acnes 6919,effective; also recorded: able to kill; also recorded: bactericidal
same,effect on P. acnes CFU burden in mouse skin,[1]; 15 mg/kg (19.5 mM) topical,no such effect; also recorded: statistically non-different
same,effect on P. acnes CFU burden in mouse skin,[1]; 30 mg/kg (39 mM) topical,no such effect; also recorded: statistically non-different
same,reduction of CFU burden in skin vs untreated,"[1]; 60 mg/kg (78 mM) topical at 2, 24, 48 and 72 hours, harvest 96 hours",approximately 1 log 10
same,effect on P. acnes CFU burden in mouse skin,"[1]; 60 mg/kg (78 mM) topical, P=0.0285 vs untreated",bacteriostatic effect; also recorded: significant reduction
same,effectiveness against Pseudomonas biofilm,[2]; 10% concentration of PCA (FIG. 33),not as effective
same,effectiveness against Pseudomonas biofilm,"[2]; 20% concentration of PCA in 70% isopropyl alcohol, dried coating (FIG. 34)",effective; also recorded: very effective
